13 compounds from US20230295109A1, “PYRIDINONE COMPOUNDS FOR THE TREATMENT OF AUTOIMMUNE DISEASE” (F. Hoffmann-La Roche AG, priority 2020, published 2023) can be followed below.

A short description of series [1]: Human microsome stability assay. Particulars: 1 µM test compound, 0.5 mg/mL liver microsomal protein, 37° C., pH 7.4. Format: in vitro ADME. How it is done:
The human microsomal stability assay is used for early assessment of metabolic stability of a test compound in human liver microsomes.
Human liver microsomes (Cat.NO.: 452117, Corning, USA;Cat.NO.:H2610, Xenotech, USA) were preincubated with test compound for 10 minutes at 37° C. in 100 mM potassium phosphate buffer, pH 7.4. The reactions were initiated by adding NADPH regenerating system. The final incubation mixtures contained 1 µM test compound, 0.5 mg/mL liver microsomal protein, 1 mM MgCl2, 1 mM NADP, 1 unit/mL isocitric dehydrogenase and 6 mM isocitric acid in 100 mM potassium phosphate buffer, pH 7.4. After incubation times of 0, 3, 6, 9, 15 and 30 minutes at 37° C., 300 µL of cold acetonitrile (including internal standard) was added to 100 µL incubation mixture to terminate the reaction. Following precipitation and centrifugation, the amount of compound remaining in the samples were determined by LC-MS/MS. Controls of no NADPH regenerating system at zero and 30 minutes were also prepared and analyzed.
Background: Liver microsomes are vesicles of endoplasmic reticulum, rich in cytochrome P450 enzymes.

Series [2] deals with T1, TLR9 (Homo sapiens, UniProt Q9NR96).
T1 sequence (Q9NR96 26-1032): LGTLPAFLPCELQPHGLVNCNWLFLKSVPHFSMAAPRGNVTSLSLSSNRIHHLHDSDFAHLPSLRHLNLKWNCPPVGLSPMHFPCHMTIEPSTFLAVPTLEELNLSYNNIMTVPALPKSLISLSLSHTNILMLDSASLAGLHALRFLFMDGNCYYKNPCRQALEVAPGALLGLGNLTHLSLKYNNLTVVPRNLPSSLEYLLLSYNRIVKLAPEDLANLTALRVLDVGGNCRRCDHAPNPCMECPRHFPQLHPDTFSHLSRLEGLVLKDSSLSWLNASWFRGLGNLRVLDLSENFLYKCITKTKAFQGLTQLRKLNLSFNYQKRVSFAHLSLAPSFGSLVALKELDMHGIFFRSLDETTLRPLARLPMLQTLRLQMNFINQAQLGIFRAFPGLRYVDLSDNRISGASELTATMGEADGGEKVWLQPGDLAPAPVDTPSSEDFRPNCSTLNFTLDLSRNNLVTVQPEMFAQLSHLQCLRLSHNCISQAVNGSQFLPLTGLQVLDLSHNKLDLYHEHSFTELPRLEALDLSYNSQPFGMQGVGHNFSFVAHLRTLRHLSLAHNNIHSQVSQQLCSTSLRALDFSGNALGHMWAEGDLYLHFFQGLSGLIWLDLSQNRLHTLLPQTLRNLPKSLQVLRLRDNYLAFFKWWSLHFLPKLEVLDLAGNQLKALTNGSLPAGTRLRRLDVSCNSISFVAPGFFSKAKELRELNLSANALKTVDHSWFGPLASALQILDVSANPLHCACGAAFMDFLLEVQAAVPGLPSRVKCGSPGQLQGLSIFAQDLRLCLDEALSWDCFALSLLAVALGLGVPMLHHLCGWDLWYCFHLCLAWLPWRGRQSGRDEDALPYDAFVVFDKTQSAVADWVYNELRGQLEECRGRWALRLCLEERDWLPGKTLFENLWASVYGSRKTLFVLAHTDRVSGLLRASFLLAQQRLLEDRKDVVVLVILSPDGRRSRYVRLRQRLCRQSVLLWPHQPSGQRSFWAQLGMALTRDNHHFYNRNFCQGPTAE
Nature of the series: Human PBMC cell-based assay, TLR9 (CpG ODN 2216). Set-up: These cells express TLR7, TLR8, or TLR9, and therefore are natural responders to respective ligand stimulation; endogenous in cells; host or cells: primary human PBMC from healthy donor whole blood. Particulars: CpG ODN 2216 at 1 µM, overnight, cytokine levels, read-out: hPBMC/TLR9 IC50. The source says: (§1) Unlike the HEK reporter cell lines, human peripheral blood mononuclear cell (PBMC) represents primary human immune cells in blood mainly consisting of lymphocytes, monocytes, and dendritic cells. These cells express TLR7, TLR8, or TLR9, and therefore are natural responders to respective ligand stimulation. Upon activation of these TLRs, PBMCs secrete similar cytokines and chemokines in vitro and in vivo, and therefore the in vitro potency of a TLR7/8/9 antagonist in human PBMC is readily translatable to its pharmacodynamics response in vivo.
(§2) Human peripheral blood mononuclear cells (PBMC) were isolated from freshly-drawn lithium-heparinized (Lithium Heparin Plus blood Collection tube, BD Vacutainer®) healthy donor whole blood by density gradient (Ficoll-PaqueTM PLUS, GE Healthcare life Sciences). Briefly, […] was diluted with 25 mL PBS (without Ca^2+, Mg^2+) in a 50 mL conical tube with porous barrier (Leucosep tube, Greiner bio-one), where 15.5 mL Ficoll-Paque was under laid after spinning. Tubes were centrifuged for 20 minutes at 800×g (1946 rpm) with the brake in the off position, and PBMC were collected from the buffy coat. Cells were then washed twice in PBS, and red blood cells were lysed by suspension in 2 mL (Red Blood Cell Lysis Buffer, Alfa Aesar) for 5-10 minutes at room temperature. After a final wash in PBS, PBMC were resuspended at a final concentration of 2×10^6 cells/mL in RPMI-1640 media with GlutaMAXTM (Gibco) supplemented with 10% Fetal Bovine Serum (Sigma) and plated at 150µL/well (3×10^5 cells/well) in tissue culture treated round bottom 96-well plates (Corning Incorporated). Antagonist compounds (compounds of this invention) solubilized and serial diluted in 100% DMSO were added in duplicate to cells to yield a final concentration of 1% DMSO (v/v). PBMC were incubated with antagonist compounds for 30 minutes at 37° C., 5% CO2 before adding various TLR agonist reagents in 48 µL complete media per well as follows (final concentrations indicated): CpG ODN 2216 (InvivoGen) at 1 µM for TLR9, ORN 06/LyoVec (InvivoGen) at 1 µg/mL for TLR8 and R848 (InvivoGen) at 1 µg/mL for TLR7 and TLR8. PBMC were incubated overnight at 37° C. with 5% CO2. Cell culture supernatants were collected, and levels of various human cytokines were assessed by Luminex assay (ProcartaPlexTM Multiplex Immunoassay, Invitrogen) or ELISA procedure according to the manufacturer’s recommended protocol (eBioscience, ThermoFisher Scientific). Viability of the cells was also checked with Cell Viability Assay (CellTiter Glo®Luminescent Cell Viability Assay, Promega).

The subject of series [3] is TLR7 and TLR8. Put plainly: Human PBMC cell-based assay, TLR7 and TLR8 (R848). The note with it: R848 at 1 µg/mL, overnight, cytokine levels, read-out: hPBMC/TLR78 IC50.
Text: as §1, §2

SMILES strings stand for the structures.

For `Cc1cc(-c2ccc(N3CCC(N4CCNCC4)CC3)nc2C(C)C)cn(C)c1=O` [Example 18, 5-[2-isopropyl-6-(4-piperazin-1-yl-1-piperidyl)-3-pyridyl]-1,3-dimethyl-pyridin-2-one], in series [1], the “Clearance of Human microsome” value was found to be 7.5 mL/min/kg. The IC50 in series [2] came out at 700 nM.
As for `Cc1cc(-c2ccc(N3CCN(Cc4cnc(N5CCNCC5)cn4)CC3)nc2C(C)C)cn(C)c1=O` [Example 8, 5-[2-isopropyl-6-[4-[(5-piperazin-1-ylpyrazin-2-yl)methyl]piperazin-1-yl]-3-pyridyl]-1,3-dimethyl-pyridin-2-one], the “Clearance of Human microsome” value in series [1] is listed as 8.3 mL/min/kg.
As for `Cc1cc(-c2ccc(N3CCN(Cc4ncc(N5CCNCC5)cn4)CC3)nc2C(C)C)cn(C)c1=O` [Example 12, 5-[2-isopropyl-6-[4-[(5-piperazin-1-ylpyrimidin-2-yl)methyl]piperazin-1-yl]-3-pyridyl]-1,3-dimethyl-pyridin-2-one], the IC50 in series [3] worked out at 12 nM; in series [2], 115 nM. Further, in series [1], the “Clearance of Human microsome” value was 8.8 mL/min/kg.
On the same counts, the results for `CCc1nc(N2CCN(Cc3ccc(N4CC5(CNCCO5)C4)nc3)CC2)ccc1-c1cc(C)c(=O)n(C)c1` [Example 2, 5-[2-ethyl-6-[4-[[6-(5-oxa-2,8-diazaspiro[3.5]nonan-2-yl)-3 pyridyl]methyl]piperazin-1-yl]-3-pyridyl]-1,3-dimethyl-pyridin-2-one] are 7 nM, 362 nM and 12.0 mL/min/kg.
On to `Cc1cc(-c2ccc(N3CCN(Cc4cnc(N5CC6(CNCCO6)C5)nc4)CC3)nc2C(C)C)cn(C)c1=O` [Example 6, 5-[2-isopropyl-6-[4-[[2-(5-oxa-2,8-diazaspiro[3.5]nonan-2-yl)pyrimidin-5-yl]methyl]piperazin-1-yl]-3-pyridyl]-1,3-dimethyl-pyridin-2-one], for which the IC50 in series [2] amounted to 730 nM.
On to `Cc1cc(-c2ccc(N3CCN(Cc4ccc(N5CCNCC5)cn4)CC3)nc2C(C)C)cn(C)c1=O` [Example 7, 5-[2-isopropyl-6-[4-[(5-piperazin-1-yl-2-pyridyl)methyl]piperazin-1-yl]-3-pyridyl]-1,3-dimethyl-pyridin-2-one], for which the “Clearance of Human microsome” value in series [1] is listed as 7.4 mL/min/kg. Also, in series [2], the IC50 stood at 101 nM.
As for `CCc1nc(N2CCN(Cc3cnc(N4CC5(CNCCO5)C4)nc3)CC2)ccc1-c1cc(C)c(=O)n(C)c1` [Example 1, 5-[2-ethyl-6-[4-[[2-(5-oxa-2,8-diazaspiro[3.5]nonan-2-yl)pyrimidin-5-yl]methyl]piperazin-1-yl]-3-pyridyl]-1,3-dimethyl-pyridin-2-one], in series [1], the “Clearance of Human microsome” value is given as 6.5 mL/min/kg. In addition, the IC50 in series [2] is 388 nM.
Regarding `Cc1cc(-c2ccc(N3CCN(Cc4ccc(N5CCNCC5)cc4)CC3)nc2C(F)F)cn(C)c1=O` [Example 17, 5-[2-(difluoromethyl)-6-[4-[(4-piperazin-1-ylphenyl)methyl]piperazin-1-yl]-3-pyridyl]-1,3-dimethyl-pyridin-2-one], the “Clearance of Human microsome” value in series [1] was found to be 8.5 mL/min/kg.
As for `Cc1cc(-c2ccc(N3CCN4CCN(c5ccc(N6CCNCC6)nc5)CC4C3)nc2C(C)C)cn(C)c1=O` (stereo not shown) [Example 16, 5-[2-isopropyl-6-[8-(6-piperazin-1-yl-3-pyridyl)-3,4,6,7,9,9a-hexahydro-1H-pyrazino[1,2-a]pyrazin-2-yl]-3-pyridyl]-1,3-dimethyl-pyridin-2-one], the IC50 in series [3] worked out at 2 nM; in series [2] it was 263 nM.
On to `CCc1nc(N2CCN(Cc3cnc(N4CC(C)(N)C4)nc3)CC2)ccc1-c1cc(C)c(=O)n(C)c1` [Example 3, 5-[6-[4-[[2-(3-amino-3-methyl-azetidin-1-yl)pyrimidin-5-yl]methyl]piperazin-1-yl]-2-ethyl-3-pyridyl]-1,3-dimethyl-pyridin-2-one], for which the IC50 in series [3] turned out to be 21 nM; in series [2] it was 377 nM. In addition, the “Clearance of Human microsome” value in series [1] is recorded as 6.1 mL/min/kg.
In the same order, the values of `Cc1cc(-c2ccc(N3CCN(Cc4cnc(N5CCNCC5)nc4)CC3)nc2C(C)C)cn(C)c1=O` [Example 9, 5-[2-isopropyl-6-[4-[(2-piperazin-1-ylpyrimidin-5-yl)methyl]piperazin-1-yl]-3-pyridyl]-1,3-dimethyl-pyridin-2-one] are 0.4 nM, 47 nM and 7.8 mL/min/kg.
Regarding `Cc1cc(-c2ccc(N3CCN(c4ccc5c(n4)CCNC5)CC3)nc2C(C)C)cn(C)c1=O` [Example 15, 5-[2-isopropyl-6-[4-(5,6,7,8-tetrahydro-1,6-naphthyridin-2-yl)piperazin-1-yl]-3-pyridyl]-1,3-dimethyl-pyridin-2-one], the “Clearance of Human microsome” value in series [1] is given as 8.7 mL/min/kg.
With `Cc1cc(-c2ccc(N3CCN(Cc4cccc(N5CCNCC5)c4)CC3)nc2C(C)C)cn(C)c1=O` [Example 14, 5-[2-isopropyl-6-[4-[(3-piperazin-1-ylphenyl)methyl]piperazin-1-yl]-3-pyridyl]-1,3-dimethyl-pyridin-2-one], in series [1], the “Clearance of Human microsome” value worked out at 8.3 mL/min/kg.
